Assay [1] has as its target T1, human KDR kinase (Homo sapiens, UniProt P35968).
T1 construct: purchased Carna 08-191
The assay is described as follows: KDR Kinase Assay (LanthaScreen TR-FRET enzymatic assay). In kind it is biochemical. Conditions: 1.2 nM KDR, 92 μM ATP. The method, boiled down:
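Recombinant human KDR (1.2 nM) preincubated 15 min at room temperature with compound, then reacted with 3 μM FAM-P22 peptide and 92 μM ATP in 50 mM HEPES pH 7.5 for 1 h at 28° C. EDTA stop, then TR-FRET acceptor/donor ratio read; percent of 1% DMSO control fitted sigmoidally for IC50.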

Assay [2] deals with TT cells. The assay is described as follows: TT Cell Proliferation Assay (WST-8, 8 days). In kind it is cell-based. Conditions: Homo sapiens, 192 h, growth inhibition in TT cells, read-out: TT Cellular Activity. The method, boiled down:
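TT cells, 6,000/well in RPMI-1640 with 10% FBS, attached 24 h, then exposed to compound at 5 μM down to 0.0005 μM final (0.5% DMSO) for 8 days at 37 °C. WST-8 added for 5 h, absorbance at 450 nm. IC50 calculated from the dilution series.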

In assay [3] the target is T2, BAF3-KIF5B-RET cells (Homo sapiens, UniProt P07949).
T2 construct: fused on or other part: P33176 (Kinesin-1 heavy chain)
T2 sequence (P07949 whole entry, change not shown, the tested form may be a part): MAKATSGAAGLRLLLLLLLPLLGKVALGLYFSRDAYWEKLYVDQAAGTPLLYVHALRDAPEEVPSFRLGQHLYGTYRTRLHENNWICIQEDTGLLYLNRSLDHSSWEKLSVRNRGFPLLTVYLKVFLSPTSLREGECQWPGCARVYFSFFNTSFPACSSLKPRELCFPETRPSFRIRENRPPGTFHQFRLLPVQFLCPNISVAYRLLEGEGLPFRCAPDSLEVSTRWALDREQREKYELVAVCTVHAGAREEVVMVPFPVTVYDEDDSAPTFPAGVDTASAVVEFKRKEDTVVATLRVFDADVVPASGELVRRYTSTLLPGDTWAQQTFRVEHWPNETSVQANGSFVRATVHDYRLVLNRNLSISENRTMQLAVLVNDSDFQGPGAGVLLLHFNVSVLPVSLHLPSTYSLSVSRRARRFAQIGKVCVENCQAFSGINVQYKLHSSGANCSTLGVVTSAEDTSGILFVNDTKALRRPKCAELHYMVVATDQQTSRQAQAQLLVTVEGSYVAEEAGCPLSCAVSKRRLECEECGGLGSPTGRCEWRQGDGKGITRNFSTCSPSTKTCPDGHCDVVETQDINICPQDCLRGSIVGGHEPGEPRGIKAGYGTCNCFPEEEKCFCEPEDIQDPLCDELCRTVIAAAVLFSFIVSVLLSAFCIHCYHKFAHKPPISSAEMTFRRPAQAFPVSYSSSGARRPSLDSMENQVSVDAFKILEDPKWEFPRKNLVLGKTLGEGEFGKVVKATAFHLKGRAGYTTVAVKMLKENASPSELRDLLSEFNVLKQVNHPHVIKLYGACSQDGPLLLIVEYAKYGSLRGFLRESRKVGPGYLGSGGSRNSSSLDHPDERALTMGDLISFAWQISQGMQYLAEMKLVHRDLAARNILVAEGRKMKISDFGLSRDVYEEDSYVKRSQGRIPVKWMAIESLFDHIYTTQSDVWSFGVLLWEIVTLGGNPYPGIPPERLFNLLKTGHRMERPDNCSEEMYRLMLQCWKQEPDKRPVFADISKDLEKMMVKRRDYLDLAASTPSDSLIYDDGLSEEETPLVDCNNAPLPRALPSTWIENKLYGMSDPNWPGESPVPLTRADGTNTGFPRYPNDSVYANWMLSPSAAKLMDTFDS
The assay can be described thus: BAF3-KIF5B-RET Cell proliferation assay (CellTiter-Glo, 72 hours). In kind it is cell-based. Particulars: growth inhibition, read-out: BA/F3-KIF5B-RET Cellular activity. The method, boiled down:
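Cells seeded at 2,000/well in RPMI-1640 with 10% FBS and left 24 h at 37 °C, then exposed 72 h to nine compound levels (final 1 μM down to 0.00015 μM, 0.1% DMSO). CellTiter-Glo luminescence gave viability versus DMSO wells, from which IC50 was fitted.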

For assay [4], the target named is T3, human RET kinase (Homo sapiens, UniProt P07949).
T3 construct: purchased Carna 08-159
T3 sequence (P07949 29-1114): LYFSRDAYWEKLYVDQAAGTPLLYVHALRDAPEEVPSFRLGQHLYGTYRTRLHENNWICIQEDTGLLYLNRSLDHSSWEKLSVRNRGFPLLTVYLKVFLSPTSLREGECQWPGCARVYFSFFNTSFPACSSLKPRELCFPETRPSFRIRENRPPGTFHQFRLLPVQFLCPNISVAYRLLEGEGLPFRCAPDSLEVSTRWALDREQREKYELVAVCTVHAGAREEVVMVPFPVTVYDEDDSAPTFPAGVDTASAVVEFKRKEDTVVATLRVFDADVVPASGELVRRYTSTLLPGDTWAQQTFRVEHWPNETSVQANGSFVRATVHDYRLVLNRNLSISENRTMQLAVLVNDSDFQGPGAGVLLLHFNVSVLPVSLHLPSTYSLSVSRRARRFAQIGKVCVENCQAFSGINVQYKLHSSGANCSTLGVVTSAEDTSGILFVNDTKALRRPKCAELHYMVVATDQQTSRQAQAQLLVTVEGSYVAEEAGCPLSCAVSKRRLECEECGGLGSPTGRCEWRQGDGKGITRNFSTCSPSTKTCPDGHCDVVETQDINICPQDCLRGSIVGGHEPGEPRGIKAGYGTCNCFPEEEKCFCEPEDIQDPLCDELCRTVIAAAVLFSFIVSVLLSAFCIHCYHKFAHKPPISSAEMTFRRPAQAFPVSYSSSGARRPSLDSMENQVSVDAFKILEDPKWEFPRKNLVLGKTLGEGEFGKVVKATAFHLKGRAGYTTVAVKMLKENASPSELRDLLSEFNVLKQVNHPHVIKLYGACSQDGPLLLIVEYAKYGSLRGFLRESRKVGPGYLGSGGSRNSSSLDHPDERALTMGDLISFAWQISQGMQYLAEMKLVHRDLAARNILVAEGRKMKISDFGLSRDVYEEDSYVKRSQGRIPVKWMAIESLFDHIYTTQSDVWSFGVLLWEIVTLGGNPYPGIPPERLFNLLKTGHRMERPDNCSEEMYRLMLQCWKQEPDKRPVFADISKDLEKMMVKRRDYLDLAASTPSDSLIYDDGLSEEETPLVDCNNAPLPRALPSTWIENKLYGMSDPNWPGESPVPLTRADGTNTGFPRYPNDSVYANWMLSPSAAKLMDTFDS
The assay is described as follows: RET Kinase Assay (LanthaScreen TR-FRET enzymatic assay). In kind it is biochemical. Particulars: 7 nM RET, 23 μM ATP. Summed up: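 Human RET (7 nM) preincubated 15 min with compound in 50 mM HEPES pH 7.5, 0.0015% Brij-35, then reacted with 3 μM FAM-P2 peptide and 23 μM ATP for 1 h at 28° C.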

Like-named read-outs stand apart in the source and are kept apart here.

T1 sequence (P35968 20-1356): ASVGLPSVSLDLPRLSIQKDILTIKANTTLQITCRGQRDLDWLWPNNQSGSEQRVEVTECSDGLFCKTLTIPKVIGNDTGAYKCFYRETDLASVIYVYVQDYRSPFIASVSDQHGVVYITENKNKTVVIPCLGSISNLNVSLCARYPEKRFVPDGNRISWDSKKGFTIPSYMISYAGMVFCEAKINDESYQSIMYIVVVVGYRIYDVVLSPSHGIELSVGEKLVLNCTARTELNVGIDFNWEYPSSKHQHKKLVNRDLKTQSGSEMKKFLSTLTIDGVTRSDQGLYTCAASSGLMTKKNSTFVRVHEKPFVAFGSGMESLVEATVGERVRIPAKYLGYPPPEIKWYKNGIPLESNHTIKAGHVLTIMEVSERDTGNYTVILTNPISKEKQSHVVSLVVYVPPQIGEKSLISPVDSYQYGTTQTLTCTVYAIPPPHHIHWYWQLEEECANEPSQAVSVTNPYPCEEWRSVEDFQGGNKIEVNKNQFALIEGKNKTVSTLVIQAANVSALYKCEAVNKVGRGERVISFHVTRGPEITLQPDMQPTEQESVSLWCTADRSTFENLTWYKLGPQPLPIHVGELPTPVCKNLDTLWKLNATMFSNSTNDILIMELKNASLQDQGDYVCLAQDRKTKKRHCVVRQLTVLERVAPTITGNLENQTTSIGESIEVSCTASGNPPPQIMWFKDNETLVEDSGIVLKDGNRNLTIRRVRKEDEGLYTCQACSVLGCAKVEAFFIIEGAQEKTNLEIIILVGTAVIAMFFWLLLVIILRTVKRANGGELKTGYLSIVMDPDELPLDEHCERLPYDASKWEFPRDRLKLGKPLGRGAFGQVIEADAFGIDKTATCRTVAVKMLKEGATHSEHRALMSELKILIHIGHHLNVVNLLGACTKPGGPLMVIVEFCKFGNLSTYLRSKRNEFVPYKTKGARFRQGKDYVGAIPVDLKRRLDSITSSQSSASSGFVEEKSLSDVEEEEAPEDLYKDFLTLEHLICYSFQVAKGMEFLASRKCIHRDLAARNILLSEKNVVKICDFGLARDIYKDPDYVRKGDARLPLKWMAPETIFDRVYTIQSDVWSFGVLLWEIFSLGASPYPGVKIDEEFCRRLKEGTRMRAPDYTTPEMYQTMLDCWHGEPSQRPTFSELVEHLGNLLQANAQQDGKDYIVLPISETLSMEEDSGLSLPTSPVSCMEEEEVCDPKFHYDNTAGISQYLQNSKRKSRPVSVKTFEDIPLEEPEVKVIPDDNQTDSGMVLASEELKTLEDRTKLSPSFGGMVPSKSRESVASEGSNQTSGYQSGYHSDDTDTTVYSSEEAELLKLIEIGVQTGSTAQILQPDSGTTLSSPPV

In the case of `Cn1cc(-c2cc(-c3ccc(N4C[C@H]5CN(C(=O)c6ncccc6Cl)C[C@H]5C4)nc3)c3c(C#N)cnn3c2)cn1` [Example 4, 4-(6-((3aR,6aS)-5-(3-chloropicolinoyl)hexahydropyrrolo[3,4-c]pyrrol-2(1H)-yl)pyridin-3-yl)-6-(1-methyl-1H-pyrazol-4-yl)pyrazolo[1,5-a]pyridine-3-carbonitrile], the values for the IC50 in assay [1], in assay [2] (TT) and in assay [4] were 0.01 to 0.05 µM, at most 0.01 µM and at most 0.01 µM, respectively. In addition, the GI50 in assay [3] is at most 0.01 µM.
Take `Cn1cc(-c2cc(-c3ccc(N4C[C@H]5CN(C(=O)c6c(F)cccc6Cl)C[C@H]5C4)nc3)c3c(C#N)cnn3c2)cn1` [Example 5, 4-(6-((3aR,6aS)-5-(2-chloro-6-fluorobenzoyl)hexahydropyrrolo[3,4-c]pyrrol-2(1H)-yl)pyridin-3-yl)-6-(1-methyl-1H-pyrazol-4-yl)pyrazolo[1,5-a]pyridine-3-carbonitrile]: the IC50 in assay [1], in assay [2] (TT) and in assay [4] was at most 0.01 µM in each case. Moreover, the GI50 in assay [3] was at most 0.01 µM.
As for `CC(C)(O)COc1cc(-c2ccc(N3C[C@H]4CN(C(=O)c5ncccc5Cl)C[C@H]4C3)nc2)c2c(C#N)cnn2c1` [Example 7, 4-(6-((3aR,6aS)-5-(3-chloropicolinoyl)hexahydropyrrolo[3,4-c]pyrrol-2(1H)-yl)pyridin-3-yl)-6-(2-hydroxy-2-methylpropoxy)pyrazolo[1,5-a]pyridine-3-carbonitrile], the IC50 in assay [1] is over 0.1 µM; in assay [2] (TT), at most 0.01 µM; in assay [4] it was at most 0.01 µM. For the same compound, the GI50 in assay [3] was 0.05 to 0.1 µM.
In the case of `CC(C)(O)COc1cc(-c2ccc(N3C[C@H]4CN(C(=O)c5c(F)cccc5Cl)C[C@H]4C3)nc2)c2c(C#N)cnn2c1` [Example 9, 4-(6-((3aR,6aS)-5-(2-chloro-6-fluorobenzoyl)hexahydropyrrolo[3,4-c]pyrrol-2(1H)-yl)pyridin-3-yl)-6-(2-hydroxy-2-methylpropoxy)pyrazolo[1,5-a]pyridine-3-carbonitrile], the IC50 in assay [1] was 0.05 to 0.1 µM; in assay [2] (TT) it was at most 0.01 µM; in assay [4] it was at most 0.01 µM. For the same compound, the GI50 in assay [3] lay within 0.01 to 0.05 µM.
Take `Cn1cc(-c2cc(-c3ccc(N4C[C@@H]5CN(S(=O)(=O)c6c(F)cccc6Cl)C[C@@H]5C4)nc3)c3c(C#N)cnn3c2)cn1` [Example 11, 4-(6-((3aR,6aS)-5-(2-chloro-6-fluorophenylsulfonyl)hexahydropyrrolo[3,4-c]pyrrol-2(1H)-yl)pyridin-3-yl)-6-(1-methyl-1H-pyrazol-4-yl)pyrazolo[1,5-a]pyridine-3-carbonitrile]: the IC50 in assay [1], in assay [2] (TT) and in assay [4] was at most 0.01 µM each time. Further, the GI50 in assay [3] was at most 0.01 µM.
Take `COc1ccc(CN2C[C@@H]3CN(c4ccc(-c5cc(-c6cnn(C)c6)cn6ncc(C#N)c56)cn4)C[C@@H]3C2)cn1` [Example 12, 4-(6-((3aR,6aS)-5-((6-methoxypyridin-3-yl)methyl)hexahydropyrrolo[3,4-c]pyrrol-2(1H)-yl)pyridin-3-yl)-6-(1-methyl-1H-pyrazol-4-yl)pyrazolo[1,5-a]pyridine-3-carbonitrile]: the results for the IC50 in assay [1], in assay [2] and in assay [4] were 0.01 to 0.05 µM, 0.01 to 0.05 µM and at most 0.01 µM, respectively. For the same compound, in assay [3], the GI50 was at most 0.01 µM.
As for `Cn1cc(-c2cc(-c3ccc(N4C[C@@H]5[C@H](C4)[C@H]5NC(=O)c4ncccc4Cl)nc3)c3c(C#N)cnn3c2)cn1` [Example 20, 3-chloro-N-((1R,5S,6s)-3-(5-(3-cyano-6-(1-methyl-1H-pyrazol-4-yl)pyrazolo[1,5-a]pyridin-4-yl)pyridin-2-yl)-3-azabicyclo[3.1.0]hexan-6-yl)picolinamide], the IC50 in assay [1] is 0.01 to 0.05 µM; in assay [2] (TT), 0.01 to 0.05 µM; in assay [4], at most 0.01 µM. For the same compound, the GI50 in assay [3] was 0.01 to 0.05 µM.
`CC(C)(O)COc1cc(-c2ccc(N3C[C@@H]4[C@H](C3)[C@H]4NC(=O)c3ncccc3Cl)nc2)c2c(C#N)cnn2c1` [Example 37, 3-chloro-N-((1R,5S,6s)-3-(5-(3-cyano-6-(2-hydroxy-2-methylpropoxy)pyrazolo[1,5-a]pyridin-4-yl)pyridin-2-yl)-3-azabicyclo[3.1.0]hexan-6-yl)picolinamide]: the IC50 is over 0.1 µM in assay [1], 0.05 to 0.1 µM in assay [2] (TT) and at most 0.01 µM in assay [4]. Besides, in assay [3], the GI50 is over 0.1 µM.
In the case of `Cn1cc(-c2cc(-c3ccc(N4C[C@@H]5[C@H](C4)[C@H]5NS(=O)(=O)c4c(F)cccc4Cl)nc3)c3c(C#N)cnn3c2)cn1` [Example 46, 2-chloro-N-((1R,5S,6s)-3-(5-(3-cyano-6-(1-methyl-1H-pyrazol-4-yl)pyrazolo[1,5-a]pyridin-4-yl)pyridin-2-yl)-3-azabicyclo[3.1.0]hexan-6-yl)-6-fluorobenzene-sulfonamide], the IC50 in assay [1], in assay [2] (TT) and in assay [4] was at most 0.01 µM throughout. Moreover, the GI50 in assay [3] is at most 0.01 µM.
As for `C[C@@]1(NC(=O)c2ncccc2Cl)C[C@H]2CN(c3ccc(-c4cc(OCC5CNCCO5)cn5ncc(C#N)c45)cn3)C[C@H]2C1` (some centres unmarked) [Example 53], the IC50 was 0.01 to 0.05 µM in assay [1], at most 0.01 µM in assay [2] (TT) and at most 0.01 µM in assay [4]. In assay [3], the GI50 was at most 0.01 µM.
Take `CC(C)(O)COc1cc(-c2ccc(N3C[C@@H]4C[C@@](C)(NC(=O)c5ncccc5Cl)C[C@@H]4C3)nc2)c2c(C#N)cnn2c1` [Example 54, 3-chloro-N-((3aR,5s,6aS)-2-(5-(3-cyano-6-(2-hydroxy-2-methylpropoxy)pyrazolo[1,5-a]pyridin-4-yl)pyridin-2-yl)-5-methyloctahydro-cyclopenta[c]pyrrol-5-yl)picolinamide]: the IC50 in assay [1] is over 0.1 µM; in assay [2] (TT), 0.01 to 0.05 µM; in assay [4], at most 0.01 µM. Besides, the GI50 in assay [3] is 0.01 to 0.05 µM.
On to `Cn1cc(-c2cc(-c3cnc(N4C[C@@H]5[C@H](C4)[C@H]5NC(=O)c4ncccc4Cl)cn3)c3c(C#N)cnn3c2)cn1` [Example 102, 3-chloro-N-((1R,5S,6s)-3-(5-(3-cyano-6-(1-methyl-1H-pyrazol-4-yl)pyrazolo[1,5-a]pyridin-4-yl)pyrazin-2-yl)-3-azabicyclo[3.1.0]hexan-6-yl)picolinamide], for which the IC50 in assay [1] is 0.05 to 0.1 µM; in assay [4], at most 0.01 µM. In addition, the GI50 in assay [3] is 0.01 to 0.05 µM.
As for `CC(C)(O)COc1cc(-c2cnc(N3C[C@@H]4[C@@H](CNC(=O)c5ncccc5Cl)[C@@H]4C3)cn2)c2c(C#N)cnn2c1` [Example 103, 3-chloro-N-(((1R,5S,6s)-3-(5-(3-cyano-6-(2-hydroxy-2-methylpropoxy)pyrazolo[1,5-a]pyridin-4-yl)pyrazin-2-yl)-3-azabicyclo[3.1.0]hexan-6-yl)methyl)picolinamide], the values for the IC50 in assay [1] and in assay [4] were over 0.1 µM and at most 0.01 µM, respectively. Moreover, in assay [3], the GI50 lay within 0.01 to 0.05 µM.
Take `COc1ccc(C(=O)NC23CC4CC(C2)N(c2ccc(-c5cc(OCC(C)(C)O)cn6ncc(C#N)c56)cn2)C(C4)C3)cn1` [Example 138, N-((1R,3S,5s,7s)-2-(5-(3-cyano-6-(2-hydroxy-2-methylpropoxy)pyrazolo[1,5-a]pyridin-4-yl)pyridin-2-yl)-2-azaadamantan-5-yl)-6-methoxynicotinamide]: the IC50 in assay [1] and in assay [4] was at most 0.01 µM each time. The GI50 in assay [3] lay within 0.01 to 0.05 µM.
Turning to `CC(C)(O)COc1cc(-c2cnc(N3C[C@@H]4C[C@@](C)(NC(=O)c5ncccc5Cl)C[C@@H]4C3)cn2)c2c(C#N)cnn2c1` [Example 143, 3-chloro-N-((3aR,5s,6aS)-2-(5-(3-cyano-6-(2-hydroxy-2-methylpropoxy)pyrazolo[1,5-a]pyridin-4-yl)pyrazin-2-yl)-5-methyloctahydrocyclopenta[c]pyrrol-5-yl)picolinamide], the IC50 was over 0.1 µM in assay [1] and at most 0.01 µM in assay [4]. Moreover, the GI50 in assay [3] lay in the range of 0.01 to 0.05 µM.
In the case of `COc1ccc(CN[C@]2(C)C[C@H]3CN(c4ccc(-c5cc(-c6cnn(C)c6)cn6ncc(C#N)c56)cn4)C[C@H]3C2)cn1` [Example 152, 4-(6-((3aR,5s,6aS)-5-(((6-methoxypyridin-3-yl)methyl)amino)-5-methylhexahydrocyclopenta[c]pyrrol-2(1H)-yl)pyridin-3-yl)-6-(1-methyl-1H-pyrazol-4-yl)pyrazolo[1,5-a]pyridine-3-carbonitrile], the IC50 was 0.01 to 0.05 µM in assay [1] and at most 0.01 µM in assay [4]. Besides, the GI50 in assay [3] was 0.05 to 0.1 µM.
For `Cn1cc(-c2cc(-c3cnc(N4C[C@@H]5[C@@H](CNC(=O)c6ncccc6Cl)[C@@H]5C4)cn3)c3c(C#N)cnn3c2)cn1` [Example 153, 3-chloro-N-(((1R,5S,6s)-3-(5-(3-cyano-6-(1-methyl-1H-pyrazol-4-yl)pyrazolo[1,5-a]pyridin-4-yl)pyrazin-2-yl)-3-azabicyclo[3.1.0]hexan-6-yl)methyl)picolinamide], the values for the IC50 in assay [1] and in assay [4] were 0.01 to 0.05 µM and at most 0.01 µM, respectively. Also, the GI50 in assay [3] was at most 0.01 µM.

These data come from US20220220128A1, “HETEROCYCLIC COMPOUNDS AS KINASE INHIBITORS, COMPOSITIONS COMPRISING THE HETEROCYCLIC COMPOUND, AND METHODS OF USE THEREOF” (JS Innopharm (Shanghai) Ltd, priority 2019, published 2022).
